Source: paper PMC3966047, “Analysis of the minimal specificity of caspase-2 and identification of Ac-VDTTD-AFC as a caspase-2-selective peptide substrate” (Bioscience Reports, 2014)
“Also recorded” adds a separate entry of the source. Read-outs that look alike come from different tables or passages of the source. One block for each substance: values may come before it. The star is where a group is joined. AFC = O=c1cc(C(F)(F)F)c2ccc(N*)cc2o1; pNA = O=[N+]([O-])c1ccc(N*)cc1

Columns and labels:
caspase-3 [1] = biological target: T1, caspase-3 (Homo sapiens, UniProt P42574); experiment: Fluorogenic peptide cleavage by purified caspase-3 (AFC release); type: biochemical
T1 construct: made in house; host or cells: E. coli BL21(DE3)pLysS
T1 sequence (P42574 29-175 limits assumed): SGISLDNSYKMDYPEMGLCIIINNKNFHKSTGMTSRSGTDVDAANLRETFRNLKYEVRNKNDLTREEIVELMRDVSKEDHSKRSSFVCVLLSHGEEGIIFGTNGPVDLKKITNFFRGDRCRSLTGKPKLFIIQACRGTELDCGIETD
T1 sequence (P42574 176-277 limits assumed): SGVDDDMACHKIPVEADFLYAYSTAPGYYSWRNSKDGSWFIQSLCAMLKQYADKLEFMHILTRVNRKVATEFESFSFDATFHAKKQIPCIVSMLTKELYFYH
Protocol: (§1) Caspases-2, -3 and -8 were purified using NiNTA resin (Qiagen) from BL21(DE3)pLysS bacteria (Novagen/Merck) transformed with pET23a–caspase-2^Δ1−149 [44], pET23a–caspase-3 [54] or pET15b–caspase-8^Δ1−216 plasmids. Induction conditions were: caspase-2, 0.4 mM IPTG (isopropyl β-D-thiogalactoside), 2 h 37°C; caspase-3, 0.2 mM IPTG, 3 h 30°C; caspase-8, 1 mM IPTG, 4 h 25°C. Caspases were active site-titrated using zVAD-fmk (Merck). ArcticExpress DE3 bacteria (Agilent Technologies) were transformed with the pET23a Bid expression plasmids described above, induced for 48 h at 10°C using 1 mM IPTG, then the His6-tagged Bid proteins were purified using NiNTA resin (Qiagen). Recombinant proteins were quantitated using the Bicinchoninic acid protein assay kit (Sigma). Runx1 proteins were synthesized using the TNT T7 quick coupled transcription/translation system (Promega) with non-radioactive methionine, using intact Runx1–pET23a plasmids as templates. The concentration of Runx1 proteins was determined by quantitative anti-His6 immunoblotting, using purified AcP35–His6 [56] as a standard.
Caspases were pre-activated for 30 min at 37°C in their preferred buffers, then diluted and mixed with fluorogenic peptide substrates. Fluorescence (excitation 410 nm, emission 500 nm) was measured every 10–60 s for up to 1 h using a FluoStar Galaxy (BMG Labtech). The maximal slope of each curve was calculated. A standard curve, using free AFC (Sigma), was used to convert fluorescence emissions into concentration of AFC produced during the cleavage reactions. Prism 5.0 software was used to determine kcat and KM from three to four independent experiments, as previously described. Ac-DEVD-AFC and Ac-VDVAD-AFC were purchased from Enzo Life Sciences. The custom substrates Ac-VDTTD-AFC and Ac-VDVPD-AFC were synthesized by 21st Century Biochemicals. […] The SuperSignal West Dura Substrate (Thermo Scientific) was used to detect signals and quantitation of sub-saturated exposures was performed using a Syngene G:Box and Image Lab 3.0 software (BioRad). […]

[2] = tested on: auto-activating caspase-2 in HEK-293T cell lysate; experiment: Fluorogenic peptide cleavage by lysates of HEK-293T cells expressing auto-activating caspase-2; type: biochemical, human embryonic kidney cells; conditions: for caspase-2 versus caspase-3 selectivity in cell lysates (in words): HEK-293T lysates with auto-activating caspase-2 or -3, 0.1 mM substrate
Protocol: (§2) Caspases were pre-activated for 30 min at 37°C in their preferred buffers, then diluted and mixed with fluorogenic peptide substrates. Fluorescence (excitation 410 nm, emission 500 nm) was measured every 10–60 s for up to 1 h using a FluoStar Galaxy (BMG Labtech). The maximal slope of each curve was calculated. A standard curve, using free AFC (Sigma), was used to convert fluorescence emissions into concentration of AFC produced during the cleavage reactions. Prism 5.0 software was used to determine kcat and KM from three to four independent experiments, as previously described. Ac-DEVD-AFC and Ac-VDVAD-AFC were purchased from Enzo Life Sciences. The custom substrates Ac-VDTTD-AFC and Ac-VDVPD-AFC were synthesized by 21st Century Biochemicals. 150 nM Bid or 100 nM Runx1 proteins were incubated with specified concentrations of caspases in their preferred buffers for 1 h (Runx1) or 0.5 h (Bid variants) at 37°C, then subjected to SDS–PAGE and immunoblotting with anti-Bid (#AF860 R&D Systems) or anti-His6 antibodies (#A00186 GenScript). Secondary antibodies were anti-mouse-HRP (#A9044, Sigma) or anti-goat-HRP (#6300-05, Southern Biotech). The SuperSignal West Dura Substrate (Thermo Scientific) was used to detect signals and quantitation of sub-saturated exposures was performed using a Syngene G:Box and Image Lab 3.0 software (BioRad). Linear regression was used to determine the caspase concentration, which cleaved half of each protein.
(§3) HEK-293T cells [human embryonic kidney cells expressing the large T-antigen of SV40 (simian virus 40)] were cultured, transfected, harvested and lysed as described except that protease inhibitors were not used. Each lysate was mixed with the appropriate fluorogenic substrate (0.1 mM) in caspase buffer, and fluorescence was monitored as outlined above.

[3] = tested on: auto-activating caspase-3 in HEK-293T cell lysate; experiment: Fluorogenic peptide cleavage by lysates of HEK-293T cells expressing auto-activating caspase-3; type: biochemical, human embryonic kidney cells
Protocol: as §2, §3

caspase-2 [4] = experiment: Fluorogenic peptide cleavage by purified caspase-2 (AFC release); type: biochemical; conditions: for selectivity for caspase-2 relative to caspase-3 (in words): purified caspases-2 and -3
Protocol: as §1, §2

caspase-2 [5] = conditions: aldehyde inhibitors; cited from earlier work
Description: (§4) Research into caspase-2 biology has been hampered by a dearth of selective reagents capable of distinguishing between caspases-2 and -3. Peptides and inhibitors based on the sequence VDVAD are marketed as ‘caspase-2-specific’ but also react strongly with caspase-3.

caspase-3 [6] = biological target: T1, caspase-3; conditions: aldehyde inhibitors; cited from earlier work
Description: as §4

caspase-2 [7] = conditions: cited from earlier work
Description: (§5) Some of the confusion regarding the function of caspase-2 may stem from researchers’ use of non-specific tools for monitoring its activity and inhibition. […] Subsequent studies have confirmed the lack of specificity associated VDVAD-based tools, yet many researchers continue to employ substrates and inhibitors derived from this peptide sequence as c ...

caspase-3 [8] = biological target: T1, caspase-3; conditions: compared with caspase-2; cited from earlier work
Description: as §5

caspase-8 = experiment: Runx1 cleavage by caspase-8 (anti-His6 immunoblot); type: biochemical; conditions: 100 nM in vitro-translated Runx1, 1 h, 37°C
Protocol: as §1, with “Runx1 proteins were synthesized using the TNT T7 quick coupled transcription/translation system (Promega) with non-radioactive methionine, using intact Runx1–pET23a plasmids as templates.” left out
(§6) Caspases were pre-activated for 30 min at 37°C in their preferred buffers, then diluted and mixed with fluorogenic peptide substrates. Fluorescence (excitation 410 nm, emission 500 nm) was measured every 10–60 s for up to 1 h using a FluoStar Galaxy (BMG Labtech). The maximal slope of each curve was calculated. A standard curve, using free AFC (Sigma), was used to convert fluorescence emissions into concentration of AFC produced during the cleavage reactions. […]

caspase-2 [9] = experiment: Runx1 cleavage by caspase-2 (anti-His6 immunoblot); type: biochemical; conditions: 100 nM in vitro-translated Runx1, 1 h, 37°C
Protocol: as §1, with “Runx1 proteins were synthesized using the TNT T7 quick coupled transcription/translation system (Promega) with non-radioactive methionine, using intact Runx1–pET23a plasmids as templates.” left out
as §6

caspase-3 [10] = biological target: T1, caspase-3; experiment: Runx1 cleavage by caspase-3 (anti-His6 immunoblot); type: biochemical; conditions: 100 nM in vitro-translated Runx1, 1 h, 37°C
Protocol: as §1, with “Runx1 proteins were synthesized using the TNT T7 quick coupled transcription/translation system (Promega) with non-radioactive methionine, using intact Runx1–pET23a plasmids as templates.” left out
as §6

cleavage efficiency relative to Ac-VDVAD-AFC (caspase-3) (caspase-3 [1]; fold versus Ac-VDVAD-AFC): 1.7 times
cleavage efficiency relative to Ac-VDVAD-AFC (caspase-2) (caspase-2 [4]; purified caspase-2, fold versus Ac-VDVAD-AFC): four
Substance: Ac-VDTTD-{AFC} [custom fluorogenic substrate synthesized by 21st Century Biochemicals]
cleavage by caspase-3 (in words) (caspase-3 [1]): only cleaved it slightly more efficiently than Ac-VDVAD-AFC
cleavage by lysates of cells expressing caspase-2 (in words) ([2]; HEK-293T lysate, auto-activating caspase-2, 0.1 mM substrate, rate of fluorescence increase, three independent transfections): efficiently cleaved by purified caspase-2 and auto-activating caspase-2 in mammalian cells; also recorded: lysates from cells expressing active caspase-2 cleaved Ac-VDTTD-AFC more efficiently than the other peptides
caspase-2 versus caspase-3 selectivity in cell lysates (in words) [2]: significantly more selective for caspase-2 than the commonly used Ac-VDVAD-AFC peptide; also recorded: does not offer this degree of specificity
VDTTDase activity relative to DEVDase activity ([2]; lysates from cells expressing caspase-2, background activity in vector transfectant lysates subtracted, 0.1 mM substrate): ~14 times
cleavage by lysates of cells expressing caspase-3 (in words) ([3]; HEK-293T lysate, auto-activating caspase-3, 0.1 mM substrate, rate of fluorescence increase, three independent transfections): proteolysed by lysates containing caspase-3, but at a slower rate than by lysates from cells expressing caspase-2
DEVDase activity relative to VDTTDase activity ([3]; cells expressing active caspase-3, Ac-DEVD-AFC versus Ac-VDTTD-AFC, 0.1 mM substrate): 3.3 times
cleavage by caspase-2 (in words) (caspase-2 [4]; purified caspase-2): efficiently cleaved by purified caspase-2
selectivity for caspase-2 relative to caspase-3 (in words) (caspase-2 [4]): better selectivity for caspase-2 relative to caspase-3 than reagents that are currently available; also recorded: exhibits enhanced caspase-2 sensitivity and specificity, relative to Ac-VDVAD-AFC

Substance: Ac-VDVAD-aldehyde
inhibition of caspase-2 compared with caspase-3 (in words) (caspase-2 [5]): inhibited caspases-2 and -3 with similar potencies
inhibition of caspase-3 compared with caspase-2 (in words) (caspase-3 [6]): inhibited caspases-2 and -3 with similar potencies

Substance: Ac-VDVAD-pNA
cleavage by caspase-2 (in words) (caspase-2 [7]): could efficiently cleave peptides containing the sequence VDVAD
cleavage by caspase-3 (in words) (caspase-3 [8]): caspase-3 could cleave these peptides with similar kinetics

Substance: Ac-VDVPD-{AFC} [custom fluorogenic substrate based on the Runx1 cleavage site]
cleavage by caspase-3 (in words) (caspase-3 [1]): proteolysed this substrate more efficiently than Ac-VDVAD-AFC
caspase-2 versus caspase-3 selectivity in cell lysates (in words) [2]: cleaved at similar rates in cell lysates containing active caspases-2 or -3
cleavage by caspase-2 (in words) (caspase-2 [4]; purified caspase-2): enhanced sensitivity to caspase-2 relative to Ac-VDVAD-AFC; also recorded: cleaved by caspase-2 slightly better than Ac-VDVAD
selectivity for caspase-2 relative to caspase-3 (in words) (caspase-2 [4]): less specific than Ac-VDVAD-AFC for caspase-2 relative to caspase-3; also recorded: lacked the sought-after selectivity for caspase-2 over caspase-3

Runx1 cleavage by caspase-8 (in words) (caspase-8): yielded a larger product
Runx1 cleavage by caspase-2 (in words) (caspase-2 [9]): yielded a larger product
Runx1 cleavage by caspase-3 (in words) (caspase-3 [10]): yielded a larger product
Substance: Runx1^DVPG: P1 mutant of Runx1
